Laboratory results reported in patent US5292531A, “Dermatologial external agent” (Shiseido Company Ltd., priority 1990, dated 1994).
In brackets after ≈: the same amount, converted by molar mass. Where two headings read alike, the source gives them in different places.

Columns and labels:
[1] = system: Propionibacterium acnes standard strain (ATCC 11827); experiment: Minimum growth inhibitory concentration (MIC), GAM agar medium pH 7.3±0.1 (Test Example 1); type: cell-based
Procedure: The growth inhibitory effects of tetrahydroabietic acid salts against Acne bacterium, which is a Gram-positive anaerobic bacterium were evaluated as follows.
Using a GAM agar medium produced by Nissui K. K. as the medium, after an adjustment of the pH of the medium to 7.3±0.1, a minimum growth inhibitory concentration (MIC) of sodium tetrahydroabietate and sodium salt of hydrogenated rosin, needed for a Propionibacterium acnes standard strain (ATCC 11827) was measured and evaluated.
As a Control, MIC's of substances generally known to have an antibacterial action (isopropylmethylphenol, berberine chloride, thioxolone, abietic acid) were also measured.

[2] = system: Propionibacterium avidum, ATCC 25577; experiment: Growth inhibitory band around filter paper disc (Test Example 2); type: cell-based; conditions: 0.05 ml of 10% acetone solution on 8 mm disc, 37° C., 3 days, anaerobic
Procedure: Using an ABCM medium (Eikensha K. K.) as the antibacterial active medium, the medium was heated in an autoclave at a temperature of 115° C. for 15 minutes. A filter paper disc (8 mm.phi.) impregnated with 0.05 ml of 10% acetone solution of each sample was adhered to an agar plate to which Propionibacterium avidum, ATCC 25577 was previously inoculated and dispersed thereon, and anaerobically cultured at 37° C. for 3 days. The diameter of the transparent band (Propionibacterium avidum growth inhibitory band) formed around the filter paper upon completion of the culturing was measured, and the antibacterial power determined therefrom.

[3] = Cutibacterium acnes, ATCC11827, GAM agar medium, pH 7.3±0.1, read-out: MIC

Structure (SMILES) | MIC ([1]; GAM agar medium, pH 7.3±0.1) [ppm] | Inhibitory band diameter [2] [mm] | MIC [1, 3] [µg/mL] | further results
CC(C)C1CC[C@H]2C(CC[C@@H]3[C@]2(C)CCC[C@@]3(C)C(=O)[O-])C1.[Na+] (stereo partly shown) [Sodium tetrahydroabietate] | 5 | 17 | – | Antibacterial power compared with other antibacterial substances ([1]; Table 1, in words): far stronger antibacterial power than other antibacterial substances
COc1ccc2cc3[n+](cc2c1OC)CCc1cc2c(cc1-3)OCO2 [Berberline chloride, berberine chloride] | – | – | – | MIC ([1]; Cutibacterium acnes, ATCC11827, pH 7.3): 100 µg/mL
CC(C)[C@@H]1CC[C@H]2[C@@H](CC[C@@H]3[C@]2(C)CCC[C@@]3(C)C(=O)O)C1 [Tetrahydroabietic acid] | 3 | 18 | – | –
Cc1cc(O)ccc1C(C)C [Isopropylmethylphenol] | 100 | – | – | –
CC(C)C1=CC2=CC[C@@H]3[C@](C)(CCC[C@@]3(C)C(=O)O)[C@H]2CC1 [Abietic acid] | – | – | 20 (≈ 66.1 µM) | zone of inhibition at 10 % ([2]; Cutibacterium avidum, ATCC25577, 72 h, read-out: Inhibitory band diameter): 15 mm
O=c1oc2cc(O)ccc2s1 [Thioxolone] | – | – | 50 (≈ 297 µM) | –
